Legend:
MCF-7 cells = test: In vitro cell proliferation assay, Assay 1 (CyQUANT cell density); type: cell-based; settings: Homo sapiens, MCF7, 72 h, MCF-7, 3 days with compound, read-out: concentration giving 50% inhibition of cell proliferation
From the text: (b) In Vitro Cell Proliferation Assay
These and other assays can be used to determine the ability of a test compound to inhibit the growth of adherent mammalian cell lines, for example the human tumour cell line MCF7.
Assay 1: MCF-7 (ATCC HTB-22) or other adherent cells were typically seeded at 1×10^3 cells per well (excluding the peripheral wells) in DMEM (Sigma Aldrich) without phenol red, plus 10% foetal calf serum, 1% L-glutamine and 1% penicillin/streptomycin in 96 well tissue culture treated clear plates (Costar). The following day (day 1), the media was removed from a no treatment control plate and the plate stored at −80° C. […] The fluorescence of the wells was then measured using a fluorescence microplate reader (gain 70, 2 reads per well, 1 cycle with excitation 485 nm and emission 530 nm using a CytoFluor plate reader (PerSeptive Biosystems Inc.)). […]

MCF7 cells = test: In vitro cell cycle analysis assay (FACS, propidium iodide); type: cell-based, human; settings: MCF7, 24.8 μM, 24 hours
Description: (c) In Vitro Cell Cycle Analysis Assay
This assay determines the ability of a test compound to arrest cells in specific phases of the cell cycle. Many different mammalian cell lines could be used in this assay and MCF7 cells are included here as an example. MCF-7 cells were seeded at 3×10^5 cells per T25 flask (Costar) in 5 ml DMEM (no phenol red 10% FCS, 1% L-glutamine 1% penicillin/streptomycin). Flasks were then incubated overnight in a humidified 37° C. incubator with 5% CO2. The following day 1 ml of DMEM (no phenol red 10% FCS, 1% L-glutamine 1% penicillin/streptomycin) carrying the appropriate concentration of test compound solubilised in DMSO was added to the flask. A no compound control treatments was also included (0.5% DMSO). The cells were then incubated for a defined time (usually 24 hours) with compound. After this time the media was aspirated from the cells and they were washed with 5 ml of prewarmed (37° C.) sterile PBSA, then detached from the flask by brief incubation with trypsin and followed by resuspension in 10 ml of 1% Bovine Serum Albumin (BSA, Sigma-Aldrich Co.) in sterile PBSA. The samples were then centrifuged at 2200 rpm for 10 min. The supernatant was aspirated and the cell pellet was resuspended in 200%1 of 0.1% (w/v) Tris sodium citrate, 0.0564% (w/v) NaCl, 0.03% (v/v) Nonidet NP40, [pH 7.6]. Propridium Iodide (Sigma Aldrich Co.) was added to 40 μg/ml and RNAase A (Sigma Aldrich Co.) to 100 μg/ml. The cells were then incubated at 37° C. for 30 minutes. The samples were centrifuged at 2200 rpm for 10 min, the supernatant removed and the remaining pellet (nuclei) resuspended in 200%1 of sterile PBSA. […] The samples were then transferred to LPS tubes and DNA content per cell analysed by Fluorescence activated cell sorting (FACS) using a FACScan flow cytometer (Becton Dickinson). Typically 25000 events were counted and recorded using […]. Cell cycle distribution of the population was calculated using Modfit software (Verity Software) and expressed as percentage of cells in G0/G1, S and G2/M phases of the cell cycle.

aurora2 kinase = molecular target: T1, aurora2 kinase (Homo sapiens, UniProt O14965); test: In vitro aurora2 kinase inhibition test; type: biochemical
T1 construct: 6 His with spacer region and rTEV protease cleavage site (pFastBac HTc) (N); made in house; host or cells: Spodoptera frugiperda Sf21 insect cells (baculovirus, pFastBac HTc)
T1 sequence (O14965 1-403): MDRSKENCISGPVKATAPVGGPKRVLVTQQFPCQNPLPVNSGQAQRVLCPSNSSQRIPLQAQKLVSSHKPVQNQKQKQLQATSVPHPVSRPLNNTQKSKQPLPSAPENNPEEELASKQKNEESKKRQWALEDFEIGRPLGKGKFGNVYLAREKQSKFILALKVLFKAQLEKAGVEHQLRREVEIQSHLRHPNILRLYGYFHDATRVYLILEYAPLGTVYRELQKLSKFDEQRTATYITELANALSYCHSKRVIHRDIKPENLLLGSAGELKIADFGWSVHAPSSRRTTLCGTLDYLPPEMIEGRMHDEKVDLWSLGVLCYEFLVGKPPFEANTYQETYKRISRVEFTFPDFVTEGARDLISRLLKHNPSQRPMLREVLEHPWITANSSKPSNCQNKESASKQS

COc1ccnc(COc2ccc(Nc3ncnc4cc(OC)c(OC)cc34)cc2C)c1 [Compound 43]
IC50 (MCF-7 cells): 12.4 µM | % Cells in G1 (MCF7 cells): 37.29% | % Cells in G2/M (MCF7 cells): 28.78% | % Cells in S (MCF7 cells): 33.93% | IC50 (aurora2 kinase): 0.465 µM

— US7081461B1, “Quinazoline compounds and pharmaceutical compositions containing them” (AstraZeneca AB, priority 1999, dated 2006)
